Data taken from ChEMBL document CHEMBL1201862, “PubChem BioAssay data set” (2004).
Active and inactive are the calls of the source.

Key:
[1] = test system: Staphylococcus aureus; test: Inhibitors of Bacterial Quorum Sensing Structure Activity Relationship (SAR) Analysis: Dose Response Assay. [Related pubchem assays: 700, 527 ]; format: functional, organism-based
[2] = test system: HEK293; test: cells; conditions: Homo sapiens
[3] = molecular target: T1, Nucleotide-binding oligomerization domain-containing protein 1 (Homo sapiens, UniProt Q9Y239); test: NOD1 signaling inhibitors, SAR follow-up, revised (AID 2333); format: functional
T1 sequence (Q9Y239 whole entry): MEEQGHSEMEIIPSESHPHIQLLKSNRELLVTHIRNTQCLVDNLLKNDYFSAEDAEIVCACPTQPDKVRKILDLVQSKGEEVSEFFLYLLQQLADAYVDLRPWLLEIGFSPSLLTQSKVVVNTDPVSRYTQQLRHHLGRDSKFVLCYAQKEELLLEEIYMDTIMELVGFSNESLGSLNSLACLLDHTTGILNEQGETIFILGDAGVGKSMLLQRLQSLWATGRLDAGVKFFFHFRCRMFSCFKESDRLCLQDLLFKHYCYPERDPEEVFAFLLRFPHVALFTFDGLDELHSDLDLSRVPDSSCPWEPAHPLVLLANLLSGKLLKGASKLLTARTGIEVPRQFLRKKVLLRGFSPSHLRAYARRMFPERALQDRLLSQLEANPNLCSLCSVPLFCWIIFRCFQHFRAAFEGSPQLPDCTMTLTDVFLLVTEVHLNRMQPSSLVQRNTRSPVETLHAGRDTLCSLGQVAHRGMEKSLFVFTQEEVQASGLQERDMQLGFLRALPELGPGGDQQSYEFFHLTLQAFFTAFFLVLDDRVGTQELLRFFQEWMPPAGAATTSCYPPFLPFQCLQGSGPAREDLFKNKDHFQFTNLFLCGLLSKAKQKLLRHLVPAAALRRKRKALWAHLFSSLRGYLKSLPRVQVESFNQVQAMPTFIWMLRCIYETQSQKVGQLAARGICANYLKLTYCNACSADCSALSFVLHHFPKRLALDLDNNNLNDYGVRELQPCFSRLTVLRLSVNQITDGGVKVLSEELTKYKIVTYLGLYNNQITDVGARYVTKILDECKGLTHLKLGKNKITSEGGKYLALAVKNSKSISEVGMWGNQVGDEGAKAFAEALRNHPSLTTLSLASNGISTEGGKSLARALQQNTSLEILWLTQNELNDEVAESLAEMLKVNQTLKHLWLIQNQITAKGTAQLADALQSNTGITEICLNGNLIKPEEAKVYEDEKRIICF

[4] = molecular target: T2, Nucleotide-binding oligomerization domain-containing protein 2 (Homo sapiens, UniProt Q9HC29); test: PubChem AID 2334; format: functional
[5] = C. albicans growth with fluconazole, confirmation, fluorescence, retest (AID 2467); format: functional, cell-based
[6] = Luminescence Cell-Based Dose Response HTS to Identify Inhibitors of 5'UTR Stem-Loop Driven Prion Protein mRNA Translation in H4 Neuroglioblastoma Cells. [Related pubchem assays: 1827 (Project Summary), 1813 (Primary HTS)]; format: functional
[7] = test system: HEK293; test: cells; format: functional, cell-based; conditions: Homo sapiens
[8] = inhibitors of intracellular T. cruzi replication, confirmation, NIH3T3 host cells, beta-gal luminescence (AID 2044); format: functional, cell-based;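 further: intracellular parasites grown in NIH/3T3 mouse fibroblasts as host cells; luminescent beta-galactosidase reporter signal from transgenic T. cruzi replicating inside host cells; inhibitors lower the luminescence signal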
[9] = test system: HEK293; test: cells; format: functional, cell-based; conditions: Homo sapiens; remark: listed apart in the source
[10] = test system: Vero; test: cells; format: functional; conditions: Chlorocebus sabaeus
[11] = molecular target: Paired box protein Pax-8 (Homo sapiens, UniProt Q06710); test: inhibitors of PAX8-driven TPO luciferase reporter, dose response, RMG-I cells, cherry-pick (AID 687027); format: functional, cell-based;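 further: luciferase reporter driven by Pax8 target thyroperoxidase promoter measured by SteadyGlo luminescence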
[12] = cytotoxicity toward NIH3T3 fibroblasts, dose response, counter-screen, cell-based, ATP luminescence, mouse fibroblasts (AID 2010); format: functional;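 further: cells exposed to compound for about 90 hours before reading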
[13] = molecular target: T3, Interleukin-8 (Homo sapiens, UniProt P10145); test: SAR analysis of GM-Tri-DAP induced IL-8 secretion in MCF-7/NOD1 cells - Set 2. [Related pubchem assays (depositor defined):AID1575, AID1578, AID2333]; format: functional, cell-based
T3 sequence (P10145 whole entry): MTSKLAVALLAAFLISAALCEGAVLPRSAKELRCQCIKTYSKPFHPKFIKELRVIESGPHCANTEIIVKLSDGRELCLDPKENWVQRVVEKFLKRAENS

[14] = test system: Vero; test: cells; format: functional, cell-based; conditions: Chlorocebus sabaeus
[15] = molecular target: T3, Interleukin-8; test: SAR analysis of Tumor necrosis factor alpha (TNF-alpha) induced IL-8 secretion in MCF-7/NOD1 cells - Set 2. [Related pubchem assays (depositor defined):AID1575, AID2250, AID2260]; format: functional, cell-based
[16] = test system: INS1; test: beta cell apoptosis inhibitors, cytokine rescue, dose response, luminescence, retest (AID 449756); format: functional, cell-based; conditions: Rattus norvegicus;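 further: cell death triggered by IL-1 beta plus TNF-alpha plus IFN-gamma mixture; protective hits raise ATP signal compared with cytokine alone wells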
[17] = test system: HEK293; test: NOD1 signaling inhibitors, primary screen, cell-based, luminescence, uHTS (AID 1578); format: functional; conditions: Homo sapiens
[18] = molecular target: Tumor necrosis factor (Homo sapiens, UniProt P01375); test: TNFa-triggered NF-kB activation inhibitors, SAR follow-up, cell-based, revised (AID 2337); format: functional
[19] = molecular target: T2, Nucleotide-binding oligomerization domain-containing protein 2; test: NOD2 signaling inhibitors, cell-based, luminescence, uHTS, HEK293 (AID 1566); format: functional
[20] = test system: HEK293; test: cells; format: functional, cell-based; conditions: Homo sapiens; remark: listed apart in the source
[21] = Luminescence-based counterscreen assay for KLF5 inhibitors: dose response cell-based high throughput screening assay to identify cytotoxic compounds using the IEC-6 intestinal epithelial cell line. [Related pubchem assays: 1700 (Primary screen.), 1834 (Confirmation screen.), 1858 (Summary AID.), 1905 (Counterscreen.)]; format: functional
[22] = inhibitors of SNCA 5'UTR-driven reporter translation, confirmation, H4 neuroglioma cells, luminescence (AID 1988); format: functional, cell-based
[23] = NIH-3T3 fibroblast cytotoxicity, dose response, cytotoxicity control, cell-based, fluorescence, Alamar Blue, secondary assay (AID 2327); format: functional;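 further: NIH-3T3 mouse fibroblasts cultured with fluconazole at 8 µg/mL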
[24] = test system: HEK293; test: NOD2 signaling inhibitors in MDP-stimulated cells, cell-based, uHTS, luminescence (AID 2001); format: functional; conditions: Homo sapiens
[25] = inhibitors of firefly luciferase expression or activity, dose response, H4 neuroglioma cells, luminescence (AID 1990); format: functional, cell-based
[26] = molecular target: Serine/threonine-protein phosphatase (Homo sapiens, UniProt Q9BPW0); test: Counterscreen for inhibitors of PP1: fluorescence-based biochemical high throughput dose response assay to identify inhibitors of Protein Phosphatase 5 (PP5). [Related pubchem assays: 2034 (Summary (PP5 inhibitors)), 1987 (PP5 inhibitors in singlate), 2235 (PP1 inhibitors in singlate)]
[27] = molecular target: Serine/threonine-protein phosphatase PP1-alpha catalytic subunit (Homo sapiens, UniProt P62136); test: PP1 phosphatase inhibitors, dose response, biochemical, fluorescence (AID 2403);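 further: phosphatase turnover of OMFP into fluorescent 3-O-methylfluorescein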
[28] = molecular target: Nonstructural protein 1 (Influenza A virus, UniProt Q194T2); format: functional, Influenza A virus (A/California/07/2009(H1N1))
[29] = molecular target: T4, Streptokinase A (Streptococcus pyogenes serotype M1, UniProt P10520); test: S. pyogenes streptokinase expression inhibitors, potency, dose response, plasminogen activation absorbance, OD405 (AID 1914); format: functional, Streptococcus pyogenes M1 GAS;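 further: secreted streptokinase activity via plasminogen activation per viability signal from cell pellet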
T4 sequence (P10520 whole entry): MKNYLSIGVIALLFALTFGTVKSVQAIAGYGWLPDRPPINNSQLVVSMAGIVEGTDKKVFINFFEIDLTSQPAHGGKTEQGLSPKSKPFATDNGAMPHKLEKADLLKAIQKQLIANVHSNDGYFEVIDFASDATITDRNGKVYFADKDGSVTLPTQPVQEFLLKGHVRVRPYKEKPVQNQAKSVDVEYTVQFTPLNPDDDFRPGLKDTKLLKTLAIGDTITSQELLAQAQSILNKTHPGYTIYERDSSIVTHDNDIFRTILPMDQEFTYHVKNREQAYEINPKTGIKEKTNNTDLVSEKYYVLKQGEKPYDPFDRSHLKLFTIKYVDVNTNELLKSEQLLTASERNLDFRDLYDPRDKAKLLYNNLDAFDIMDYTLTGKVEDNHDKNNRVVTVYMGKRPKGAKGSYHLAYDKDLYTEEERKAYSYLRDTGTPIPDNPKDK

[30] = test system: Streptococcus; test: Luminescence Microorganism-Based Dose Response Follow up to Identify Compounds Cytotoxic to Streptococcus. [Related pubchem assays: 1677 (Project Summary), 1915, 1914, 1902 (Retest at Dose), 1900 (Counter Screen), 1662 (Primary HTS)]; format: functional, organism-based
[31] = test system: Streptococcus sp. 'group A'; test: growth inhibition of control SK(-) GAS strain, dose response, counter-screen for streptokinase expression inhibitor project, luminescence, kanamycin, BacTiterGlo, confirmation (AID 1900); format: functional, organism-based
[32] = test system: Streptococcus; test: Group A Streptococcus viability loss, dose response, counter-screen for streptokinase expression inhibitor project, luminescence, BacTiterGlo (AID 1915); format: functional, organism-based;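 further: potency for reduction of bacterial viability or growth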
[33] = molecular target: Eukaryotic translation initiation factor 4H (Homo sapiens, UniProt Q15056); test: human eIF4H binding inhibitors, primary screen, translation initiation inhibitor project, biochemical, uHTS, fluorescence polarization (AID 2012)
[34] = molecular target: Polyadenylate-binding protein 1 (Homo sapiens, UniProt P11940); test: PABP poly(A) RNA binding inhibitors, primary screen, biochemical, fluorescence polarization, uHTS (AID 2014)
Sequence of Polyadenylate-binding protein 1 (P11940 whole entry): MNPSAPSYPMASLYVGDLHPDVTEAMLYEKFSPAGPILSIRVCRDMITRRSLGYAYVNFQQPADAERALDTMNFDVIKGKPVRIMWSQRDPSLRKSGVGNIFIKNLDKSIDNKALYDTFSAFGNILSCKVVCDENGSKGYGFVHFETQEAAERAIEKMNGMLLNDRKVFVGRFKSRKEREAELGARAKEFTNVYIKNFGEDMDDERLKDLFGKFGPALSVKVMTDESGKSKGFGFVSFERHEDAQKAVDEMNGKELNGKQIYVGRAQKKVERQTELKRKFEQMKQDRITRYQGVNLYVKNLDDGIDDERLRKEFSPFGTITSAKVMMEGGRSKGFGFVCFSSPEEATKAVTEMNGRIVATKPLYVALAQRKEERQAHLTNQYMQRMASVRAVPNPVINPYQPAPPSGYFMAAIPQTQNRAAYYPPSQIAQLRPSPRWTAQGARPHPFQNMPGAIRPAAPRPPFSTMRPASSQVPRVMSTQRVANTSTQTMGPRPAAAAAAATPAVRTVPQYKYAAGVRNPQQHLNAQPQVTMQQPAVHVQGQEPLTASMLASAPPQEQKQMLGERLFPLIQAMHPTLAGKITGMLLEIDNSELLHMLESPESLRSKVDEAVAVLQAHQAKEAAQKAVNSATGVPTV

T2 sequence (Q9HC29 whole entry, the tested form may be a part): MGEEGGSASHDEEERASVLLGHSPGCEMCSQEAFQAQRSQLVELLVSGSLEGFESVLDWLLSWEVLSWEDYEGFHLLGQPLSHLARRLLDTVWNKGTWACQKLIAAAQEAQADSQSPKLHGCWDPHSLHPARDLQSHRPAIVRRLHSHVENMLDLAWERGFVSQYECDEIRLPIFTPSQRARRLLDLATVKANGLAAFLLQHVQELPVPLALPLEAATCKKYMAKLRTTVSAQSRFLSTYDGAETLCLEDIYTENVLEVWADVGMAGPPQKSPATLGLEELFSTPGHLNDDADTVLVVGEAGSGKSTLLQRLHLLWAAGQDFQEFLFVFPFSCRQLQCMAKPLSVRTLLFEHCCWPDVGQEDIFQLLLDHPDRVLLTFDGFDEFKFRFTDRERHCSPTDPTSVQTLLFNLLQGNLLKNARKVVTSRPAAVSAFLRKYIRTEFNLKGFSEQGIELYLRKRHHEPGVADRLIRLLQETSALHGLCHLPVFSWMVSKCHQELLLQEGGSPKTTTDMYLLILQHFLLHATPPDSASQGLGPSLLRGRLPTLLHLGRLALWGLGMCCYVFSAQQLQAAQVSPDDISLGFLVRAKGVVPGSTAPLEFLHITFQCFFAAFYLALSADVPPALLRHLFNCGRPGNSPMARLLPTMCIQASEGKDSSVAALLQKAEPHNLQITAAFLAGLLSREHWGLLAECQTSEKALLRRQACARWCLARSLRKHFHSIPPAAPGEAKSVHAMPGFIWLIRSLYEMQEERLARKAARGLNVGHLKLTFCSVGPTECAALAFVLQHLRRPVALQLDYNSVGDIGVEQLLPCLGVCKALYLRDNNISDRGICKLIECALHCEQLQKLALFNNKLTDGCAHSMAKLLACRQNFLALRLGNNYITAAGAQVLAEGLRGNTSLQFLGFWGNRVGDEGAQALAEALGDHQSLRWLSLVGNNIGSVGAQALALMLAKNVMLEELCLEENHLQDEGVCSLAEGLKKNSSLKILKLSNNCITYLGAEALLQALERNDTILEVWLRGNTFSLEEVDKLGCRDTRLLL
Sequence of Nonstructural protein 1 (Q194T2 whole entry): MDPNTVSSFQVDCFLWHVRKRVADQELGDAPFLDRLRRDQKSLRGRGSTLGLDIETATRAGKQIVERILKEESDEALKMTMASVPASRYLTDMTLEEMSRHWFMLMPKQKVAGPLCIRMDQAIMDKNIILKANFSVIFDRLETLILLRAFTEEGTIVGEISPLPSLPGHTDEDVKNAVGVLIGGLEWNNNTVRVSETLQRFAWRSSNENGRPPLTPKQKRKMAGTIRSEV
Sequence of Tumor necrosis factor (P01375 whole entry, the tested form may be a part): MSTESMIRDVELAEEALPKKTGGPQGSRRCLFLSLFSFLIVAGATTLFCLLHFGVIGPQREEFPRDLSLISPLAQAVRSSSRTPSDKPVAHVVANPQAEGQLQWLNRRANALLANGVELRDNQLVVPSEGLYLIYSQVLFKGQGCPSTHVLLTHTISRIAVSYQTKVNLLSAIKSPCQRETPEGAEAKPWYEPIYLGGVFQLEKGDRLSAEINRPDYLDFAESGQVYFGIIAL
Sequence of Serine/threonine-protein phosphatase PP1-alpha catalytic subunit (P62136 whole entry): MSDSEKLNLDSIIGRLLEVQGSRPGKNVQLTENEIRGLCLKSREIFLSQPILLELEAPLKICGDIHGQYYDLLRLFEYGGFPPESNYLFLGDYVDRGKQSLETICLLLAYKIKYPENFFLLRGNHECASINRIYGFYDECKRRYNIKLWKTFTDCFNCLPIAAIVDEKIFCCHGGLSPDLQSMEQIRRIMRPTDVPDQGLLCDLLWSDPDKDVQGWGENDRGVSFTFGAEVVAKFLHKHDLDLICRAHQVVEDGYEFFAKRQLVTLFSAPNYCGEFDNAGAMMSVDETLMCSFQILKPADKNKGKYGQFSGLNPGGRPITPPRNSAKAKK
Sequence of Paired box protein Pax-8 (Q06710 whole entry): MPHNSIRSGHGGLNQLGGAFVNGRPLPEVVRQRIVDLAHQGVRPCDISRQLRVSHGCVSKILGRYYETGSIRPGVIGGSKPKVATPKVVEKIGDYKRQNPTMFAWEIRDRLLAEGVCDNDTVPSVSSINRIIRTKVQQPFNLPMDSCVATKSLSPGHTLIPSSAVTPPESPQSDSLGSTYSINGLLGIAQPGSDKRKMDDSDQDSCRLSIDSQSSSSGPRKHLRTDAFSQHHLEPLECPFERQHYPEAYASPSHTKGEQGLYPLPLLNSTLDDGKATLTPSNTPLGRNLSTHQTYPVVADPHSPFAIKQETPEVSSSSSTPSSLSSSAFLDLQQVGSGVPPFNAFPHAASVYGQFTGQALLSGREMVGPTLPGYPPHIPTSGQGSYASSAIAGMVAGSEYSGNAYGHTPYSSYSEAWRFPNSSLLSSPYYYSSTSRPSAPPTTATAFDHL
Sequence of Serine/threonine-protein phosphatase (Q9BPW0 whole entry): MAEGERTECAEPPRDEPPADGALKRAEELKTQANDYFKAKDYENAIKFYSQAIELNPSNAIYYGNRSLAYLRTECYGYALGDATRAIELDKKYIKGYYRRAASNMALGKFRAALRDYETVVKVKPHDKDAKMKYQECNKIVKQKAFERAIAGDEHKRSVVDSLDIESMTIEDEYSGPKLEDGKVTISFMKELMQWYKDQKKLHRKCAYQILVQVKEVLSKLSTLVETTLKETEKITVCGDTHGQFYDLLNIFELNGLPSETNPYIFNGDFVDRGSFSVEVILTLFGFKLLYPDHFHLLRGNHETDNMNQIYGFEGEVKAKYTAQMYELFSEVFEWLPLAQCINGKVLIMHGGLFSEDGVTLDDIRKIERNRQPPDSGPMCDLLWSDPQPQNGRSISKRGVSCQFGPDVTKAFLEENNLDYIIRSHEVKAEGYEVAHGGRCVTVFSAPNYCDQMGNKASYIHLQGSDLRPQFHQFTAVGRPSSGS

With `CCOC(=O)c1c(C)oc2cc(Br)c(O)c(Br)c12` the IC50 [1] was 0.779 µM (active).
In the case of `Oc1ccc(N=Nc2ccccc2C(F)(F)F)c2cccnc12`, the IC50 [2] is reported as > 20 µM (inactive), the IC50 [3] is reported as > 20 µM (inactive) and the IC50 [4] is reported as > 20 µM (inactive). For the same compound, the EC50 [5] was 1.57 µM (active), the EC50 [6] was 1.08 µM (active) and the IC50 [7] was > 20 µM (inactive). The EC50 [8] was 0.633 µM (active), the IC50 [9] was > 20 µM (inactive) and the CC50 [10] was 4.62 µM (active). For the same compound, the AC50 [11] was 4.15 µM (active), the EC50 [12] was 6.95 µM (active) and the IC50 [13] was 19.8 µM (active). For the same compound, the IC50 [14] was > 25 µM (active), the IC50 [15] was > 25 µM (inactive) and the AC50 [16] was 1.17 µM (active). For the same compound, the EC50 [17] was 3.71 µM (active), the IC50 [18] was 7.03 µM (active) and the EC50 [19] was > 20 µM (inactive). For the same compound, the IC50 [20] was > 20 µM (inactive), the IC50 [21] was 6.27 µM (active) and the EC50 [22] was 0.308 µM (active). The EC50 [23] was > 160 µM (inactive), the IC50 [24] was 4.21 µM (inactive) and the EC50 [25] was 1.9 µM (active).
For `Cc1ccn2c(Nc3ccc4c(c3)OCO4)c(-c3ccccn3)nc2c1`, the IC50 [26] was 37.9 µM (not active), the IC50 [27] was 6.76 µM (active) and the IC50 [28] was 11.5 µM (active).
In the case of `Cc1ccc(C(=O)n2c3ccccc3c3ccccc32)cc1`, the EC50 [29] is reported as 6.45 µM (active), the EC50 [30] is reported as > 500 µM (not active) and the EC50 [31] is reported as 21.6 µM (active). The EC50 [32] was > 150 µM (not active).
With `CCOc1ccc2nc(SCC(=O)NC(=O)NCc3ccco3)[nH]c2c1` the IC50 [33] was 13.3 µM (active) and the IC50 [34] was 62.3 µM (active).
